Consider two compounds from patent EP4741383A1, “COMPOUND AND USE THEREOF AS ANTI-CANCER DRUG” (Tyligand Bioscience (Shanghai) Limited, priority 2023, dated 2025).

By IC50 is commonly meant the concentration that inhibits the measured activity by half. Read a low IC50 as inhibition by little substance.

SMILES strings stand for the structures. A value given as a limit tells only on which side of the number the result lay.

In the first assay the target is T1, LYP (Homo sapiens, UniProt Q9Y2R2).
T1 construct: made in house; host or cells: E. coli
T1 sequence (Q9Y2R2 1-807): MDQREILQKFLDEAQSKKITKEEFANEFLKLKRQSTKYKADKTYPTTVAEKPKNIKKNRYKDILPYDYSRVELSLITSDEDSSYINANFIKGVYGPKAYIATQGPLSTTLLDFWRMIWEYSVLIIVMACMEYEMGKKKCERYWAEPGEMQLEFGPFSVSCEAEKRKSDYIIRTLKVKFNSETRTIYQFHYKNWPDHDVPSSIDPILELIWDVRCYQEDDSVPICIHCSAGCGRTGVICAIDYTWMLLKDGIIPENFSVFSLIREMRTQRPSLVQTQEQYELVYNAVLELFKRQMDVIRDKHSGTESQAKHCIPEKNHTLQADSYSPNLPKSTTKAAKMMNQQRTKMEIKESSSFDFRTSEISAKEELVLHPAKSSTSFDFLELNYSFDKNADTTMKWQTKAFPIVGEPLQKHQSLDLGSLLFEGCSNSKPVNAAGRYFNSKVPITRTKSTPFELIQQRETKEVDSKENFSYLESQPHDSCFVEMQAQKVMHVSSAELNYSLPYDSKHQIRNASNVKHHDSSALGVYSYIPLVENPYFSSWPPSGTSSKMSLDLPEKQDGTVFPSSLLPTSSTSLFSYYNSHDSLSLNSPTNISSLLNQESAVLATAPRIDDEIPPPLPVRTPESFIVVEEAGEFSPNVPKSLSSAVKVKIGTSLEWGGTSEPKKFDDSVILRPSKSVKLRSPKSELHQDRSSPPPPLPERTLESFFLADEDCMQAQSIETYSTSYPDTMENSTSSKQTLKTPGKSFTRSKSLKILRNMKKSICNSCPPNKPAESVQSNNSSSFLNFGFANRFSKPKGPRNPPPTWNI
The experiment in a line: Tyrosine phosphatase selectivity (pNPP substrate), LYP. Type of assay: biochemical. As to conditions: LYP, pNPP substrate. On the procedure: (§1) This experiment evaluated the selectivity of the disclosed compounds against tyrosine phosphatases, including SHP1, HePTP, Laforin, LMWPTP, LYP, PTP1B, PRL2, SSU72, VHR, FAP1, STEP, CDC14A, CD45, MEG2, and PP5, all expressed and purified from E. coli.
(§2) Phosphatase activity was measured using p-nitrophenyl phosphate (pNPP) (Fisher Scientific) as the substrate in 50 mM 3,3-dimethylglutaric acid buffer (pH 7.0, containing 1 mM EDTA), with ionic strength adjusted to 0.15 M with NaCl. […] After 10-60 minutes, the reaction was quenched by adding 20 µL of 5 N NaOH. Wells without enzyme were used as controls for correction. The amount of the product, p-nitrophenol, was determined by measuring the absorbance at 405 nm using a Spectra MAX340 microplate spectrophotometer (Molecular Devices), with a molar extinction coefficient of 18000 M^-1cm^-1.
(§3) Data were analyzed using GraphPad Prism software. Dose-response curves were obtained by fitting data using the nonlinear S-curve regression Dose-response-inhibition equation, and IC50 values were calculated.
`O=C(Nc1ccc(-c2cc3cc(F)c(-c4nnn[nH]4)cc3n2C2CCC2)cc1)C(=O)Nc1ccc(N2CCOCC2)cc1` [Example 47] had an IC50 of 189 nM.

Take `O=C(Nc1ccc(-c2ccsc2)cc1)C(=O)Nc1ccc(-c2cc3ccc(-c4nnn[nH]4)nc3n2C2CCC2)cc1` [Example 129]: the IC50 amounted to 1200 nM.

The assay is the same for the next values; noted with them: selectivity ratio LYP over SHP2.
`O=C(Nc1ccc(-c2cc3cc(F)c(-c4nnn[nH]4)cc3n2C2CCC2)cc1)C(=O)Nc1ccc(N2CCOCC2)cc1` [Example 47]: the “IC50PTP/IC50SHP2 LYP” value turned out to be 3.0.

In the case of `O=C(Nc1ccc(-c2ccsc2)cc1)C(=O)Nc1ccc(-c2cc3ccc(-c4nnn[nH]4)nc3n2C2CCC2)cc1` [Example 129], the “IC50PTP/IC50SHP2 LYP” value is on record as 20.3.

The target in a further assay is T2, STEP (Homo sapiens, UniProt P54829).
T2 construct: made in house; host or cells: E. coli
T2 sequence (P54829 1-565): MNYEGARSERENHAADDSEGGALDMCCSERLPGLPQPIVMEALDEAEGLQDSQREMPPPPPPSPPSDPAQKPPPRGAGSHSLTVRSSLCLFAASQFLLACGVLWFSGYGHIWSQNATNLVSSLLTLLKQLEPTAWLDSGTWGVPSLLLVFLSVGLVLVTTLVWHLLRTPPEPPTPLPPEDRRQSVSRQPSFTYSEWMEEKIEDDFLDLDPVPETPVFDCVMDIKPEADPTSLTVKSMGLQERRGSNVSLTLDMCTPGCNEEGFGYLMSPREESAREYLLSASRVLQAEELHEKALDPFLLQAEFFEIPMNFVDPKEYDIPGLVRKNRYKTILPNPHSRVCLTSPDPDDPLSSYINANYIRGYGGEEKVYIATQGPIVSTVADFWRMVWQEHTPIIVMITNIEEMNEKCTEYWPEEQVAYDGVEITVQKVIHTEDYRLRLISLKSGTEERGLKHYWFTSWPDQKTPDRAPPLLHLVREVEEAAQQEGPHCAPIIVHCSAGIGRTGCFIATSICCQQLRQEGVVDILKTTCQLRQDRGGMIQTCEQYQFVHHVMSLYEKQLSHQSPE
Put plainly: Tyrosine phosphatase selectivity (pNPP substrate), STEP. It counts as biochemical. As to conditions: STEP, pNPP substrate. On the procedure: as §1, §2, §3
`O=C(Nc1ccc(-c2cc3cc(F)c(-c4nnn[nH]4)cc3n2C2CCC2)cc1)C(=O)Nc1ccc(N2CCOCC2)cc1` [Example 47] displayed an IC50 of 770 nM.

Consider `O=C(Nc1ccc(-c2ccsc2)cc1)C(=O)Nc1ccc(-c2cc3ccc(-c4nnn[nH]4)nc3n2C2CCC2)cc1` [Example 129], for which the half-maximal inhibitory concentration (IC50) was under 3000 nM.

The assay is the same for the next values; noted with them: selectivity ratio STEP over SHP2.
Take `O=C(Nc1ccc(-c2cc3cc(F)c(-c4nnn[nH]4)cc3n2C2CCC2)cc1)C(=O)Nc1ccc(N2CCOCC2)cc1` [Example 47]: the “IC50PTP/IC50SHP2 STEP” value is recorded as 12.2.

`O=C(Nc1ccc(-c2ccsc2)cc1)C(=O)Nc1ccc(-c2cc3ccc(-c4nnn[nH]4)nc3n2C2CCC2)cc1` [Example 129]: the “IC50PTP/IC50SHP2 STEP” value is on record as 50.8.

For the next assay, the target named is T3, PTP1B (Homo sapiens, UniProt P18031).
T3 construct: made in house; host or cells: E. coli
T3 sequence (P18031 1-435): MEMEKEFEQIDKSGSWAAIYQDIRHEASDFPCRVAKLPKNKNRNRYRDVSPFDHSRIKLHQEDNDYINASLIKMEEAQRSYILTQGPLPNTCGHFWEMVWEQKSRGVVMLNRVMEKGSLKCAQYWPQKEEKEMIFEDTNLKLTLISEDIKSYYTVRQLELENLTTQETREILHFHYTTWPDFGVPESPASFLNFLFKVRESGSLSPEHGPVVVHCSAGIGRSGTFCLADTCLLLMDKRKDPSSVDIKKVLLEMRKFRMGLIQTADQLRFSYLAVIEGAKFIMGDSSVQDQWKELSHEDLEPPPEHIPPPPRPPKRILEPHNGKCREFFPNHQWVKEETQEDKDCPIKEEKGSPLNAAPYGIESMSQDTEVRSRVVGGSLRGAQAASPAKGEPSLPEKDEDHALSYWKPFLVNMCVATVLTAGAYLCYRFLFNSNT
The experiment in a line: Tyrosine phosphatase selectivity (pNPP substrate), PTP1B. Type of assay: biochemical. As to conditions: PTP1B, pNPP substrate. On the procedure:
as §1, §2, §3
The compound `O=C(Nc1ccc(-c2cc3cc(F)c(-c4nnn[nH]4)cc3n2C2CCC2)cc1)C(=O)Nc1ccc(N2CCOCC2)cc1` [Example 47] displayed an IC50 of 370 nM.

In turn, `O=C(Nc1ccc(-c2ccsc2)cc1)C(=O)Nc1ccc(-c2cc3ccc(-c4nnn[nH]4)nc3n2C2CCC2)cc1` [Example 129] showed an IC50 of 8500 nM.

Still in this assay, the particulars now being: selectivity ratio PTP1B over SHP2.
For the compound `O=C(Nc1ccc(-c2cc3cc(F)c(-c4nnn[nH]4)cc3n2C2CCC2)cc1)C(=O)Nc1ccc(N2CCOCC2)cc1` [Example 47], the “IC50PTP/IC50SHP2 PTP1B” value worked out at 5.8.

Turning to `O=C(Nc1ccc(-c2ccsc2)cc1)C(=O)Nc1ccc(-c2cc3ccc(-c4nnn[nH]4)nc3n2C2CCC2)cc1` [Example 129], the “IC50PTP/IC50SHP2 PTP1B” value is recorded as 144.1.

Another assay deals with T4, Laforin (Homo sapiens, UniProt O95278).
T4 construct: made in house; host or cells: E. coli
T4 sequence (O95278 1-331): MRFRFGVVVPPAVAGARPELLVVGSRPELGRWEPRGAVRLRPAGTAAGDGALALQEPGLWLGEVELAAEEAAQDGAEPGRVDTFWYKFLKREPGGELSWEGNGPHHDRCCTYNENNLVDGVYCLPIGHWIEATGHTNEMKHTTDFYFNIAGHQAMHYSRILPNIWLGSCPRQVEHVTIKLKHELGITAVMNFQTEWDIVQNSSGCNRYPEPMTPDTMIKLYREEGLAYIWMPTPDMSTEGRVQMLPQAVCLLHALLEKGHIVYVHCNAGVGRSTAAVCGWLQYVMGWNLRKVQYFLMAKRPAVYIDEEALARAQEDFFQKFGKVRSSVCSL
Put plainly: Tyrosine phosphatase selectivity (pNPP substrate), Laforin. Type of assay: biochemical. To be noted: Laforin, pNPP substrate. The method, then:
as §1, §2, §3
Turning to `O=C(Nc1ccc(-c2cc3cc(F)c(-c4nnn[nH]4)cc3n2C2CCC2)cc1)C(=O)Nc1ccc(N2CCOCC2)cc1` [Example 47], the IC50 amounted to 610 nM.

In turn, `O=C(Nc1ccc(-c2ccsc2)cc1)C(=O)Nc1ccc(-c2cc3ccc(-c4nnn[nH]4)nc3n2C2CCC2)cc1` [Example 129] showed an IC50 of over 20000 nM.

The assay is the same for the next values; noted with them: selectivity ratio Laforin over SHP2.
Turning to `O=C(Nc1ccc(-c2cc3cc(F)c(-c4nnn[nH]4)cc3n2C2CCC2)cc1)C(=O)Nc1ccc(N2CCOCC2)cc1` [Example 47], the “IC50PTP/IC50SHP2 Laforin” value is reported as 9.6.

Take `O=C(Nc1ccc(-c2ccsc2)cc1)C(=O)Nc1ccc(-c2cc3ccc(-c4nnn[nH]4)nc3n2C2CCC2)cc1` [Example 129]: the “IC50PTP/IC50SHP2 Laforin” value is 339.0.

The target of another assay is T5, SSU72 (Homo sapiens, UniProt Q9NP77).
T5 construct: made in house; host or cells: E. coli
T5 sequence (Q9NP77 1-194): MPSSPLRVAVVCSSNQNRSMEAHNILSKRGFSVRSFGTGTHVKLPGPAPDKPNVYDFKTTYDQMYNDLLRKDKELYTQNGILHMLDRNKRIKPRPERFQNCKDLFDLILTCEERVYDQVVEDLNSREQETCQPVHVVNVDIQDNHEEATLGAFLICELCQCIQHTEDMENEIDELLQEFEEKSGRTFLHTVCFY
The experiment in a line: Tyrosine phosphatase selectivity (pNPP substrate), SSU72. Type of assay: biochemical. To be noted: SSU72, pNPP substrate. The method, then: as §1, §2, §3
`O=C(Nc1ccc(-c2cc3cc(F)c(-c4nnn[nH]4)cc3n2C2CCC2)cc1)C(=O)Nc1ccc(N2CCOCC2)cc1` [Example 47]: the IC50 came to 90 nM.

`O=C(Nc1ccc(-c2ccsc2)cc1)C(=O)Nc1ccc(-c2cc3ccc(-c4nnn[nH]4)nc3n2C2CCC2)cc1` [Example 129] displayed an IC50 of 35800 nM.

Still in this assay, the particulars now being: selectivity ratio SSU72 over SHP2.
As to `O=C(Nc1ccc(-c2cc3cc(F)c(-c4nnn[nH]4)cc3n2C2CCC2)cc1)C(=O)Nc1ccc(N2CCOCC2)cc1` [Example 47], the “IC50PTP/IC50SHP2 SSU72” value is 1.4.

In the case of `O=C(Nc1ccc(-c2ccsc2)cc1)C(=O)Nc1ccc(-c2cc3ccc(-c4nnn[nH]4)nc3n2C2CCC2)cc1` [Example 129], the “IC50PTP/IC50SHP2 SSU72” value was 606.8.
